Values joined by “and” are separate entries in the source; they are usually repeats but may differ in a detail not shown here. Equal values may be shown once.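 Results reflect a 48-hour exposure of cells in 96-well plates to compound at five concentrations. At the GI50, growth is halved. At the TGI there is no net growth.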
Tests used:
Test in all cases: NCI anticancer screen, dose series, 48 h
786-0 renal = test system: 786-0 renal
PC-3 prostate = test system: PC-3 prostate
SR leukemia = test system: SR leukemia
IGROV1 ovarian = test system: IGROV1 ovarian
SW-620 colon = test system: SW-620 colon
SN12C renal = test system: SN12C renal
MDA-MB-435 = test system: MDA-MB-435
UACC-257 melanoma = test system: UACC-257 melanoma
HCT-116 colon = test system: HCT-116 colon
HS 578T breast = test system: HS 578T breast
U251 CNS = test system: U251 CNS
LOX IMVI melanoma = test system: LOX IMVI melanoma
NCI-H522 lung = test system: NCI-H522 lung
HL-60(TB) leukemia = test system: HL-60(TB) leukemia
OVCAR-4 ovarian = test system: OVCAR-4 ovarian
HOP-92 NSCLC = test system: HOP-92 NSCLC
HCT-15 colon = test system: HCT-15 colon
K-562 leukemia = test system: K-562 leukemia
OVCAR-8 ovarian = test system: OVCAR-8 ovarian
CAKI-1 renal = test system: CAKI-1 renal
TK-10 renal = test system: TK-10 renal
ACHN renal = test system: ACHN renal
EKVX NSCLC = test system: EKVX NSCLC
MDA-MB-468 breast = test system: MDA-MB-468 breast
UACC-62 melanoma = test system: UACC-62 melanoma
A498 renal = test system: A498 renal
OVCAR-3 ovarian = test system: OVCAR-3 ovarian
M14 melanoma = test system: M14 melanoma
SK-MEL-5 melanoma = test system: SK-MEL-5 melanoma
SK-OV-3 ovarian = test system: SK-OV-3 ovarian
SNB-19 CNS = test system: SNB-19 CNS
A549 NSCLC = test system: A549 NSCLC
SF-268 CNS = test system: SF-268 CNS
SF-295 CNS = test system: SF-295 CNS
NCI-H23 lung = test system: NCI-H23 lung
COLO 205 colon = test system: COLO 205 colon
RPMI-8226 leukemia = test system: RPMI-8226 leukemia
HCC-2998 colon = test system: HCC-2998 colon
KM12 colon = test system: KM12 colon
CCRF-CEM leukemia = test system: CCRF-CEM leukemia
BT-549 breast = test system: BT-549 breast
RXF 393 renal = test system: RXF 393 renal
T-47D breast = test system: T-47D breast
SK-MEL-28 melanoma = test system: SK-MEL-28 melanoma
MALME-3M melanoma = test system: MALME-3M melanoma
MOLT-4 leukemia = test system: MOLT-4 leukemia
DU-145 prostate = test system: DU-145 prostate
NCI-H460 lung = test system: NCI-H460 lung
SF-539 CNS = test system: SF-539 CNS
NCI-H226 lung = test system: NCI-H226 lung
HOP-62 NSCLC = test system: HOP-62 NSCLC
NCI/ADR-RES ovarian = test system: NCI/ADR-RES ovarian
MCF7 breast = test system: MCF7 breast
HT29 colon = test system: HT29 colon
OVCAR-5 ovarian = test system: OVCAR-5 ovarian

Work on `O=C1Nc2ccc(Cl)cc2/C1=C/c1cccc(OCc2ccccn2)c1` yielded a GI50 (786-0 renal) of 16.4 µM, a TGI (786-0 renal) of 31.1 µM and a GI50 (PC-3 prostate) of 19.4 µM. For the same compound, the TGI (PC-3 prostate) was 64.4 µM, the GI50 (SR leukemia) was 13 µM and the TGI (SR leukemia) was 41.9 µM. It also gave a GI50 (IGROV1 ovarian) of 15.7 µM, a TGI (IGROV1 ovarian) of 31.2 µM and a GI50 (SW-620 colon) of 17.5 µM. It also gave a TGI (SW-620 colon) of 34.3 µM, a GI50 (SN12C renal) of 15.3 µM and a TGI (SN12C renal) of 28.9 µM. For the same compound, the GI50 (MDA-MB-435) was 18.4 µM, the TGI (MDA-MB-435) was 36 µM and the GI50 (UACC-257 melanoma) was 15.2 µM. The TGI (UACC-257 melanoma) was 28.7 µM, the GI50 (HCT-116 colon) was 13 µM and the TGI (HCT-116 colon) was 27.2 µM. For the same compound, the GI50 (HS 578T breast) was 17.7 µM, the TGI (HS 578T breast) was 45.7 µM and the GI50 (U251 CNS) was 14.6 µM. It also gave a TGI (U251 CNS) of 28.9 µM, a GI50 (LOX IMVI melanoma) of 13.3 µM and a TGI (LOX IMVI melanoma) of 28.2 µM. The GI50 (NCI-H522 lung) was 14.6 µM, the TGI (NCI-H522 lung) was 29.9 µM and the GI50 (HL-60(TB) leukemia) was 19.2 µM. The TGI (HL-60(TB) leukemia) was 52.5 µM, the GI50 (OVCAR-4 ovarian) was 18.3 µM and the TGI (OVCAR-4 ovarian) was 54.1 µM. It also gave a GI50 (HOP-92 NSCLC) of 14.7 µM, a TGI (HOP-92 NSCLC) of 46.2 µM and a GI50 (HCT-15 colon) of 13.7 µM. It also gave a TGI (HCT-15 colon) of 30.3 µM, a GI50 (K-562 leukemia) of 19 µM and a TGI (K-562 leukemia) greater than 100 µM. It also gave a GI50 (OVCAR-8 ovarian) of 15.4 µM, a TGI (OVCAR-8 ovarian) of 30.3 µM and a GI50 (CAKI-1 renal) of 15.3 µM. It also gave a TGI (CAKI-1 renal) of 32 µM, a GI50 (TK-10 renal) of 18.7 µM and a TGI (TK-10 renal) of 33.5 µM. For the same compound, the GI50 (ACHN renal) was 15 µM, the TGI (ACHN renal) was 30 µM and the GI50 (EKVX NSCLC) was 8.43 µM. It also gave a TGI (EKVX NSCLC) of 21.1 µM, a GI50 (MDA-MB-468 breast) of 11.9 µM and a TGI (MDA-MB-468 breast) of 25.5 µM. For the same compound, the GI50 (UACC-62 melanoma) was 11.9 µM, the TGI (UACC-62 melanoma) was 24.4 µM and the GI50 (A498 renal) was 18.2 µM. The TGI (A498 renal) was 32.7 µM, the GI50 (OVCAR-3 ovarian) was 16.1 µM and the TGI (OVCAR-3 ovarian) was 30.1 µM. The GI50 (M14 melanoma) was 16.3 µM, the TGI (M14 melanoma) was 31.2 µM and the GI50 (SK-MEL-5 melanoma) was 17 µM. For the same compound, the TGI (SK-MEL-5 melanoma) was 30.7 µM, the GI50 (SK-OV-3 ovarian) was 20.2 µM and the TGI (SK-OV-3 ovarian) was 47 µM. The GI50 (SNB-19 CNS) was 15.7 µM, the TGI (SNB-19 CNS) was 29.3 µM and the GI50 (A549 NSCLC) was 17.8 µM. The TGI (A549 NSCLC) was 38.2 µM, the GI50 (SF-268 CNS) was 17.6 µM and the TGI (SF-268 CNS) was 38.9 µM. It also gave a GI50 (SF-295 CNS) of 15.5 µM, a TGI (SF-295 CNS) of 29.1 µM and a GI50 (NCI-H23 lung) of 14.5 µM. It also gave a TGI (NCI-H23 lung) of 28.1 µM, a GI50 (COLO 205 colon) of 17.5 µM and a TGI (COLO 205 colon) of 33 µM. It also gave a GI50 (RPMI-8226 leukemia) of 20 µM, a TGI (RPMI-8226 leukemia) greater than 100 µM and a GI50 (HCC-2998 colon) of 17.8 µM. The TGI (HCC-2998 colon) was 31.9 µM, the GI50 (KM12 colon) was 18.1 µM and the TGI (KM12 colon) was 33.8 µM. The GI50 (CCRF-CEM leukemia) was 30.6 µM, the TGI (CCRF-CEM leukemia) was greater than 100 µM and the GI50 (BT-549 breast) was 14.1 µM. It also gave a TGI (BT-549 breast) of 27.7 µM, a GI50 (RXF 393 renal) of 11.9 µM and a TGI (RXF 393 renal) of 24.5 µM. The GI50 (T-47D breast) was 13.4 µM, the TGI (T-47D breast) was 30.6 µM and the GI50 (SK-MEL-28 melanoma) was 16.8 µM. The TGI (SK-MEL-28 melanoma) was 30.5 µM, the GI50 (MALME-3M melanoma) was 15.4 µM and the TGI (MALME-3M melanoma) was 29 µM. The GI50 (MOLT-4 leukemia) was 12.4 µM, the TGI (MOLT-4 leukemia) was 36.8 µM and the GI50 (DU-145 prostate) was 17.8 µM. It also gave a TGI (DU-145 prostate) of 31.8 µM, a GI50 (NCI-H460 lung) of 18 µM and a TGI (NCI-H460 lung) of 34.5 µM. For the same compound, the GI50 (SF-539 CNS) was 16 µM, the TGI (SF-539 CNS) was 29.5 µM and the GI50 (NCI-H226 lung) was 16.3 µM. It also gave a TGI (NCI-H226 lung) of 38.5 µM, a GI50 (HOP-62 NSCLC) of 15.8 µM and a TGI (HOP-62 NSCLC) of 31.3 µM. The GI50 (NCI/ADR-RES ovarian) was 14.2 µM, the TGI (NCI/ADR-RES ovarian) was 34 µM and the GI50 (MCF7 breast) was 7.15 µM. The TGI (MCF7 breast) was 20.7 µM, the GI50 (HT29 colon) was 17.4 µM and the TGI (HT29 colon) was 32.8 µM. It also gave a GI50 (OVCAR-5 ovarian) of 15.9 µM and a TGI (OVCAR-5 ovarian) of 30.4 µM.
In the case of `Cn1c(=O)n(-c2ccc(C(C)(C)C#N)cc2)c2c3cc(-c4cnc5ccccc5c4)ccc3ncc21`, the GI50 (MDA-MB-468 breast) is reported as 0.0118 µM and 0.00531 µM and < 0.0105 µM and the TGI (MDA-MB-468 breast) is reported as 0.0505 µM and 0.0285 µM and 0.0642 µM.
`COc1cccc(-c2nn(-c3ccccc3)cc2-c2ccnc(NCCNC(=O)Nc3ccc(Cl)c(Cl)c3)c2)c1` was tested, and the GI50 (MDA-MB-468 breast) was 1.7 µM and the TGI (MDA-MB-468 breast) was 4.54 µM.
For `CCCC/C(=N\N=C(N)N)c1ccc(F)cc1`, the GI50 (MDA-MB-468 breast) was 0.59 µM and the TGI (MDA-MB-468 breast) was 5.81 µM.
